Laboratory results taken from PubChem BioAssay (NCI).
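Protocol summary: plate cells (96-well), add compound at 5 concentrations, incubate 48 h, interpolate endpoints linearly. TGI marks complete inhibition of growth.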 Where a SMILES comes first, the peptide text is derived from it. Bridges are numbered along the chain shown (N, C = ends). [ ]: non-standard residue; d: D form. The star is where a group is joined. Cbz = O=C(OCc1ccccc1)*; Aib = CC(C)(N)C(=O)O; OBn = c1ccc(CO*)cc1; βAla = NCCC(=O)O

How the values were obtained:
Assay in all cases: DTP human tumour cell line panel, 48 h
BT-549 breast = test system: BT-549 breast
EKVX NSCLC = test system: EKVX NSCLC
HCT-15 colon = test system: HCT-15 colon
HL-60(TB) leukemia = test system: HL-60(TB) leukemia
HS 578T breast = test system: HS 578T breast
HT29 colon = test system: HT29 colon
KM12 colon = test system: KM12 colon
M14 melanoma = test system: M14 melanoma
MALME-3M melanoma = test system: MALME-3M melanoma
MDA-MB-435 = test system: MDA-MB-435
MOLT-4 leukemia = test system: MOLT-4 leukemia
NCI-H460 lung = test system: NCI-H460 lung
NCI-H522 lung = test system: NCI-H522 lung
OVCAR-3 ovarian = test system: OVCAR-3 ovarian
RXF 393 renal = test system: RXF 393 renal
SK-OV-3 ovarian = test system: SK-OV-3 ovarian
T-47D breast = test system: T-47D breast
UACC-257 melanoma = test system: UACC-257 melanoma
UACC-62 melanoma = test system: UACC-62 melanoma

Row | Compound | TGI (BT-549 breast) | TGI (EKVX NSCLC) | TGI (HCT-15 colon) | TGI (HL-60(TB) leukemia) | TGI (HS 578T breast) | TGI (HT29 colon) | TGI (KM12 colon) | TGI (M14 melanoma) | TGI (MALME-3M melanoma) | TGI (MDA-MB-435) | TGI (MOLT-4 leukemia) | TGI (NCI-H460 lung) | TGI (NCI-H522 lung) | TGI (OVCAR-3 ovarian) | TGI (RXF 393 renal) | TGI (SK-OV-3 ovarian) | TGI (T-47D breast) | TGI (UACC-257 melanoma) | TGI (UACC-62 melanoma)
1 | CCOC(=O)C(=C(SC)SC)c1nn2c(=O)cc(C)nc2s1 | 43.7 µM | 53.8 µM | 31.8 µM | 37.6 µM | > 100 µM | 35.8 µM | 89.7 µM | 29.4 µM | 32.3 µM | 30.7 µM | 44.1 µM | 60.7 µM | 41.7 µM | 35 µM | 47.5 µM | > 100 µM | 34.1 µM | 45.2 µM | 57.3 µM
2 | O=C(CNc1ccc(Cl)cc1)Nn1c(-c2ccccc2)nc2ccccc2c1=O | 6.29 µM | 35.7 µM | 18.9 µM | 32.1 µM | 67 µM | 21.1 µM | 24.5 µM | 20.3 µM | 13.7 µM | 23.2 µM | 16.2 µM | 23.4 µM | 11.5 µM | 25.8 µM | 17.4 µM | 27.8 µM | 32.6 µM | 33.2 µM | 10.9 µM
3 | C=C(C)[C@@H](C(=O)OC)N1C(=O)c2ccccc2C1=O | > 100 µM | > 100 µM | > 100 µM | > 100 µM | > 100 µM | > 100 µM | > 100 µM | > 100 µM | > 100 µM | > 100 µM | > 100 µM | > 100 µM | > 100 µM | > 100 µM | > 100 µM | > 100 µM | > 100 µM | > 100 µM | > 100 µM
4 | C=CCN1C(=O)/C(=C/c2ccccc2)NC1=S | > 100 µM | > 100 µM | > 100 µM | > 100 µM | > 100 µM | > 100 µM | > 100 µM | > 100 µM | > 100 µM | > 100 µM | > 100 µM | > 100 µM | > 100 µM | > 100 µM | > 100 µM | > 100 µM | > 100 µM | > 100 µM | > 100 µM
5 | COc1ccccc1N1C(=O)/C(=C\c2cccc(Oc3ccccc3)c2)SC1c1ccccc1 (stereo unspecified) | > 100 µM | > 100 µM | > 100 µM | 39.4 µM | > 100 µM | > 100 µM | > 100 µM | > 100 µM | > 100 µM | > 100 µM | > 100 µM | > 100 µM | > 100 µM | > 100 µM | > 100 µM | > 100 µM | > 100 µM | > 100 µM | > 100 µM
6 | O=C(CCc1ccc(O)cc1)NCCc1ccc(O)cc1 | > 100 µM | > 100 µM | > 100 µM | > 100 µM | > 100 µM | > 100 µM | > 100 µM | > 100 µM | > 100 µM | > 100 µM | > 100 µM | > 100 µM | > 100 µM | > 100 µM | > 100 µM | > 100 µM | > 100 µM | > 100 µM | > 100 µM
7 | CC(=O)c1cccc2c1CC1(C2)Cc2ccc3c(c2C1=O)CCC3 (stereo unspecified) | > 100 µM | 83.3 µM | > 100 µM | 21.3 µM | > 100 µM | > 100 µM | > 100 µM | > 100 µM | > 100 µM | > 100 µM | > 100 µM | > 100 µM | > 100 µM | > 100 µM | > 100 µM | > 100 µM | > 100 µM | 43.9 µM | > 100 µM
8 | Nc1ccc(C(=O)Nn2c(-c3ccccc3)nc3ccccc3c2=O)cc1 | > 100 µM | > 100 µM |  | > 100 µM | > 100 µM | > 100 µM | > 100 µM | > 100 µM | > 100 µM | > 100 µM | > 100 µM | > 100 µM | > 100 µM | > 100 µM | > 100 µM | > 100 µM | > 100 µM | > 100 µM | > 100 µM
9 | O=C(Nc1ccc2nc(-c3ccccc3)cn2c1)Oc1ccccc1 | > 100 µM | > 100 µM | > 100 µM | > 100 µM | > 100 µM | > 100 µM | > 100 µM | > 100 µM | > 100 µM | 47.5 µM | > 100 µM | > 100 µM | 90.2 µM | > 100 µM | 7.31 µM | > 100 µM | 76.9 µM | > 100 µM | > 100 µM
10 | CC1(C)NC(=O)C(NC(=O)C(CC(=O)OCc2ccccc2)NC(=O)OCc2ccccc2)CCCCNC(=O)CCNC1=O (stereo unspecified) (Cbz-D(OBn)K[Aib][βAla]; lactam 2-C; configuration not given here) | > 100 µM | > 100 µM | > 100 µM | > 100 µM | > 100 µM | > 100 µM | > 100 µM | > 100 µM | > 100 µM | > 100 µM | > 100 µM | > 100 µM | > 100 µM | > 100 µM | > 100 µM | > 100 µM | > 100 µM |  | > 100 µM
11 | CCCN=C(NC(=O)c1ccc(Cl)cc1)SC | 89.8 µM | > 100 µM | > 100 µM | > 100 µM | 95 µM | > 100 µM | > 100 µM | > 100 µM | > 100 µM | > 100 µM | > 100 µM | > 100 µM | > 100 µM | > 100 µM | > 100 µM | > 100 µM | > 100 µM | > 100 µM | > 100 µM
12 | O=C1NC(Nc2cccc(Cl)c2)=N/C1=C\c1ccc(Cl)c(Cl)c1 | 25.1 µM | 12.2 µM | 18.6 µM | 15.1 µM | 13.4 µM | 19.6 µM | 14.8 µM | 14.9 µM | 27.8 µM | 17.6 µM | 20.8 µM | 5.67 µM | 6.62 µM | 19.7 µM | 10.4 µM | 27.5 µM | 14.2 µM | 22.2 µM | 21.6 µM
